Columns and labels:
Assay type in all cases: functional
[1] = tested on: Thanatephorus cucumeris; assay: Antifungal activity against Rhizoctonia solani at 1 mmol after 48 hrs
[2] = tested on: Curvularia lunata; assay: Antifungal activity against Curvularia lunata at 1 mmol after 48 hrs
[3] = tested on: Curvularia lunata; assay: Antifungal activity against Curvularia lunata at 1 mmol after 48 hrs relative to control
[4] = tested on: Thanatephorus cucumeris; assay: Antifungal activity against Rhizoctonia solani at 1 mmol after 48 hrs relative to control
[5] = tested on: Candida albicans; assay: Antimicrobial activity against Candida albicans at 0.622 mg/ml after 48 hrs; details: read-out: IZ
[6] = tested on: Staphylococcus epidermidis; assay: Inhibition of growth of Staphylococcus epidermidis at 0.622 mg/ml after 48 hrs; details: read-out: IZ
[7] = tested on: Pseudomonas aeruginosa; assay: Inhibition of growth of Pseudomonas aeruginosa at 0.622 mg/ml after 48 hrs; details: read-out: IZ
[8] = tested on: Candida albicans; assay: Antimicrobial activity against Candida albicans at 0.622 mg/ml after 48 hrs relative to control
[9] = tested on: Staphylococcus epidermidis; assay: Inhibition of growth of Staphylococcus epidermidis at 0.622 mg/ml after 48 hrs relative to control
[10] = tested on: Pseudomonas aeruginosa; assay: Inhibition of growth of Pseudomonas aeruginosa at 0.622 mg/ml after 48 hrs relative to control
[11] = tested on: Candida albicans; assay: Antimicrobial activity against Candida albicans at 1 mmol after 48 hrs
[12] = tested on: Staphylococcus epidermidis; assay: Antimicrobial activity against Staphylococcus epidermidis at 1 mmol after 48 hrs
[13] = tested on: Pseudomonas aeruginosa; assay: Antimicrobial activity against Pseudomonas aeruginosa at 1 mmol after 48 hrs
[14] = tested on: Pseudomonas aeruginosa; assay: Antimicrobial activity against Pseudomonas aeruginosa at 1 mmol after 48 hrs relative to control
[15] = tested on: Candida albicans; assay: Antimicrobial activity against Candida albicans at 1 mmol after 48 hrs relative to control
[16] = tested on: Staphylococcus epidermidis; assay: Antimicrobial activity against Staphylococcus epidermidis at 1 mmol after 48 hrs relative to control
[17] = tested on: Curvularia lunata; assay: Antifungal activity against Curvularia lunata at 0.652 mg/ml after 48 hrs; details: read-out: IZ
[18] = tested on: Thanatephorus cucumeris; assay: Antifungal activity against Rhizoctonia solani at 0.652 mg/ml after 48 hrs; details: read-out: IZ
[19] = tested on: Curvularia lunata; assay: Antifungal activity against Curvularia lunata at 0.652 mg/ml after 48 hrs relative to control
[20] = tested on: Thanatephorus cucumeris; assay: Antifungal activity against Rhizoctonia solani at 0.652 mg/ml after 48 hrs relative to control

Brc1ccc2[nH]cc(C(c3cn(-c4ccccc4)nc3-c3ccccc3)c3c[nH]c4ccc(Br)cc34)c2c1
inhibition zone (IZ) [1]: 5.3 cm | inhibition zone (IZ) [2]: 4.7 cm | Inhibition [3]: 47.8% | Inhibition [4]: 41.1% | zone of inhibition at 622 µg/mL [5]: 27 mm | zone of inhibition at 622 µg/mL [6]: 21 mm | zone of inhibition at 622 µg/mL [7]: 18 mm | inhibition at 622 µg/mL [8]: 30% | Inhibition [9]: ≤ 23.3% | inhibition at 622 µg/mL [10]: 20% | inhibition zone (IZ) [11]: 2.7 cm | inhibition zone (IZ) [12]: 2.1 cm | inhibition zone (IZ) [13]: 1.8 cm

COc1ccc(-c2nn(-c3ccccc3)cc2C(c2c[nH]c3ccc([N+](=O)[O-])cc23)c2c[nH]c3ccc([N+](=O)[O-])cc23)cc1
Inhibition [14]: 0% | inhibition zone (IZ) [1]: 4.8 cm | inhibition zone (IZ) [2]: 1.4 cm | Inhibition [3]: 84.4% | Inhibition [4]: 53.3% | inhibition zone (IZ) [11]: 0 cm | inhibition zone (IZ) [12]: 0 cm | inhibition zone (IZ) [13]: 0 cm | Inhibition [15]: 0% | Inhibition [16]: 0%

Clc1ccc(-c2nn(-c3ccccc3)cc2C(c2c[nH]c3ccc(Br)cc23)c2c[nH]c3ccc(Br)cc23)cc1
Inhibition [14]: 0% | inhibition zone (IZ) [1]: 7.4 cm | inhibition zone (IZ) [2]: 7.6 cm | Inhibition [3]: 15.6% | Inhibition [4]: 17.8% | inhibition zone (IZ) [11]: 0.6 cm | inhibition zone (IZ) [12]: 0 cm | inhibition zone (IZ) [13]: 0 cm | Inhibition [15]: 6.7% | Inhibition [16]: 0%

COc1ccc(-c2nn(-c3ccccc3)cc2C(c2c[nH]c3ccc(Br)cc23)c2c[nH]c3ccc(Br)cc23)cc1
Inhibition [14]: 15.6% | zone of inhibition at 652 µg/mL [17]: 3 mm | zone of inhibition at 652 µg/mL [18]: 5 mm | inhibition at 652 µg/mL [19]: 96.7% | inhibition at 652 µg/mL [20]: 93.9% | inhibition zone (IZ) [11]: 0 cm | inhibition zone (IZ) [12]: 0 cm | inhibition zone (IZ) [13]: 1.4 cm | Inhibition [15]: 0% | Inhibition [16]: 0%

O=[N+]([O-])c1ccc2[nH]cc(C(c3cn(-c4ccccc4)nc3-c3ccccc3)c3c[nH]c4ccc([N+](=O)[O-])cc34)c2c1
Inhibition [14]: 14.4% | inhibition zone (IZ) [1]: 9 cm | inhibition zone (IZ) [2]: 9 cm | Inhibition [3]: 0% | Inhibition [4]: 0% | inhibition zone (IZ) [11]: 0 cm | inhibition zone (IZ) [12]: 0 cm | inhibition zone (IZ) [13]: 1.3 cm | Inhibition [15]: 0% | Inhibition [16]: 0%

CCn1c(-c2ccccc2)c(C(c2cn(-c3ccccc3)nc2-c2ccc(Cl)cc2)c2c(-c3ccccc3)n(CC)c3ccccc23)c2ccccc21
Inhibition [14]: 15.6% | inhibition zone (IZ) [1]: 7.3 cm | inhibition zone (IZ) [2]: 5.2 cm | Inhibition [3]: 42.2% | Inhibition [4]: 18.8% | inhibition zone (IZ) [11]: 0.5 cm | inhibition zone (IZ) [12]: 1.4 cm | inhibition zone (IZ) [13]: 1.4 cm | Inhibition [15]: 5.6% | Inhibition [16]: 15.6%

CCn1c(-c2ccccc2)c(C(c2cn(-c3ccccc3)nc2-c2ccc(Br)cc2)c2c(-c3ccccc3)n(CC)c3ccccc23)c2ccccc21
Inhibition [14]: 0% | inhibition zone (IZ) [1]: 7.5 cm | inhibition zone (IZ) [2]: 7.8 cm | Inhibition [3]: 13.3% | Inhibition [4]: 16.7% | inhibition zone (IZ) [11]: 0 cm | inhibition zone (IZ) [12]: 0.7 cm | inhibition zone (IZ) [13]: 0 cm | Inhibition [15]: 0% | Inhibition [16]: 7.9%

Brc1ccc(-c2nn(-c3ccccc3)cc2C(c2c[nH]c3ccc(Br)cc23)c2c[nH]c3ccc(Br)cc23)cc1
Inhibition [14]: 16.7% | inhibition zone (IZ) [1]: 1.7 cm | inhibition zone (IZ) [2]: 0.8 cm | Inhibition [3]: 91.1% | Inhibition [4]: 81.1% | inhibition zone (IZ) [11]: 2.2 cm | inhibition zone (IZ) [12]: 0 cm | inhibition zone (IZ) [13]: 1.5 cm | Inhibition [15]: 24.4% | Inhibition [16]: 0%
